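Assay format: 96-well plates, 48-hour exposure. GI50 marks 50% less growth. TGI marks complete inhibition of growth.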
What was measured:
Assay in all cases: DTP human tumour cell line panel, 48 h
786-0 renal = tested on: 786-0 renal
A498 renal = tested on: A498 renal
A549 NSCLC = tested on: A549 NSCLC
ACHN renal = tested on: ACHN renal
BT-549 breast = tested on: BT-549 breast
CAKI-1 renal = tested on: CAKI-1 renal
CCRF-CEM leukemia = tested on: CCRF-CEM leukemia
COLO 205 colon = tested on: COLO 205 colon
EKVX NSCLC = tested on: EKVX NSCLC
HCC-2998 colon = tested on: HCC-2998 colon
HCT-116 colon = tested on: HCT-116 colon
HCT-15 colon = tested on: HCT-15 colon
HL-60(TB) leukemia = tested on: HL-60(TB) leukemia
HOP-62 NSCLC = tested on: HOP-62 NSCLC
HOP-92 NSCLC = tested on: HOP-92 NSCLC
HS 578T breast = tested on: HS 578T breast
HT29 colon = tested on: HT29 colon
IGROV1 ovarian = tested on: IGROV1 ovarian
K-562 leukemia = tested on: K-562 leukemia
KM12 colon = tested on: KM12 colon
LOX IMVI melanoma = tested on: LOX IMVI melanoma
M14 melanoma = tested on: M14 melanoma
MALME-3M melanoma = tested on: MALME-3M melanoma
MCF7 breast = tested on: MCF7 breast
MDA-MB-231 breast = tested on: MDA-MB-231 breast
MOLT-4 leukemia = tested on: MOLT-4 leukemia
NCI-H226 lung = tested on: NCI-H226 lung
NCI-H23 lung = tested on: NCI-H23 lung
NCI-H460 lung = tested on: NCI-H460 lung
NCI-H522 lung = tested on: NCI-H522 lung
NCI/ADR-RES ovarian = tested on: NCI/ADR-RES ovarian
OVCAR-3 ovarian = tested on: OVCAR-3 ovarian
OVCAR-4 ovarian = tested on: OVCAR-4 ovarian
OVCAR-5 ovarian = tested on: OVCAR-5 ovarian
OVCAR-8 ovarian = tested on: OVCAR-8 ovarian
PC-3 prostate = tested on: PC-3 prostate
RPMI-8226 leukemia = tested on: RPMI-8226 leukemia
RXF 393 renal = tested on: RXF 393 renal
SF-268 CNS = tested on: SF-268 CNS
SF-295 CNS = tested on: SF-295 CNS
SF-539 CNS = tested on: SF-539 CNS
SK-MEL-2 melanoma = tested on: SK-MEL-2 melanoma
SK-MEL-5 melanoma = tested on: SK-MEL-5 melanoma
SK-OV-3 ovarian = tested on: SK-OV-3 ovarian
SN12C renal = tested on: SN12C renal
SNB-19 CNS = tested on: SNB-19 CNS
SNB-75 CNS = tested on: SNB-75 CNS
SR leukemia = tested on: SR leukemia
SW-620 colon = tested on: SW-620 colon
TK-10 renal = tested on: TK-10 renal
U251 CNS = tested on: U251 CNS
UACC-62 melanoma = tested on: UACC-62 melanoma
UO-31 renal = tested on: UO-31 renal

Structure (SMILES): CCOC(=O)[C@@H](C)C[C@H](Cc1ccccc1)NC(=O)c1csc([C@@H](C[C@H](C(C)C)N(C)C(=O)[C@@H](NC(=O)[C@H]2CCCCN2C)C(C)(C)C)OC(C)=O)n1
- GI50 (786-0 renal): < 1.67 nM
- TGI (786-0 renal): > 6610 nM
- GI50 (A498 renal): < 1.67 nM
- TGI (A498 renal): < 1.67 nM
- GI50 (A549 NSCLC): < 1.67 nM
- TGI (A549 NSCLC): > 16700 nM
- GI50 (ACHN renal): < 1.67 nM
- TGI (ACHN renal): > 16700 nM
- GI50 (BT-549 breast): < 1.67 nM
- TGI (BT-549 breast): 9.61 nM
- GI50 (CAKI-1 renal): < 1.67 nM
- TGI (CAKI-1 renal): > 16700 nM
- GI50 (CCRF-CEM leukemia): < 1.67 nM
- TGI (CCRF-CEM leukemia): > 16700 nM
- GI50 (COLO 205 colon): < 1.67 nM
- TGI (COLO 205 colon): 4.32 nM
- GI50 (EKVX NSCLC): < 1.67 nM
- TGI (EKVX NSCLC): > 16700 nM
- GI50 (HCC-2998 colon): < 1.67 nM
- GI50 (HCT-116 colon): < 1.67 nM
- GI50 (HCT-15 colon): < 1.67 nM
- TGI (HCT-15 colon): > 16700 nM
- GI50 (HL-60(TB) leukemia): < 1.67 nM
- TGI (HL-60(TB) leukemia): < 1.67 nM
- GI50 (HOP-62 NSCLC): < 1.67 nM
- TGI (HOP-62 NSCLC): > 16700 nM
- GI50 (HOP-92 NSCLC): < 1.67 nM
- TGI (HOP-92 NSCLC): 1440 nM
- GI50 (HS 578T breast): < 1.67 nM
- TGI (HS 578T breast): 472 nM
- GI50 (HT29 colon): < 1.67 nM
- TGI (HT29 colon): > 7520 nM
- GI50 (IGROV1 ovarian): < 1.67 nM
- TGI (IGROV1 ovarian): > 16700 nM
- GI50 (K-562 leukemia): < 1.67 nM
- TGI (K-562 leukemia): > 16700 nM
- GI50 (KM12 colon): < 1.67 nM
- TGI (KM12 colon): 215 nM
- GI50 (LOX IMVI melanoma): < 1.67 nM
- TGI (LOX IMVI melanoma): > 16700 nM
- GI50 (M14 melanoma): < 1.67 nM
- TGI (M14 melanoma): 29.4 nM
- GI50 (MALME-3M melanoma): < 1.67 nM
- TGI (MALME-3M melanoma): > 16700 nM
- GI50 (MCF7 breast): < 1.67 nM
- TGI (MCF7 breast): > 16700 nM
- GI50 (MDA-MB-231 breast): < 1.67 nM
- TGI (MDA-MB-231 breast): 647 nM
- GI50 (MOLT-4 leukemia): 2.17 nM
- TGI (MOLT-4 leukemia): > 16700 nM
- GI50 (NCI-H226 lung): < 1.67 nM
- TGI (NCI-H226 lung): 104 nM
- GI50 (NCI-H23 lung): < 1.67 nM
- TGI (NCI-H23 lung): > 16700 nM
- GI50 (NCI-H460 lung): < 1.67 nM
- TGI (NCI-H460 lung): > 5370 nM
- GI50 (NCI-H522 lung): < 1.67 nM
- TGI (NCI-H522 lung): 64.4 nM
- GI50 (NCI/ADR-RES ovarian): 5.42 nM
- GI50 (OVCAR-3 ovarian): < 1.67 nM
- TGI (OVCAR-3 ovarian): 3.52 nM
- GI50 (OVCAR-4 ovarian): 3.28 nM
- TGI (OVCAR-4 ovarian): > 16700 nM
- GI50 (OVCAR-5 ovarian): < 1.67 nM
- TGI (OVCAR-5 ovarian): > 16700 nM
- GI50 (OVCAR-8 ovarian): < 1.67 nM
- TGI (OVCAR-8 ovarian): > 16700 nM
- GI50 (PC-3 prostate): < 1.67 nM
- TGI (PC-3 prostate): > 16700 nM
- GI50 (RPMI-8226 leukemia): < 1.67 nM
- TGI (RPMI-8226 leukemia): > 6360 nM
- GI50 (RXF 393 renal): < 1.67 nM
- TGI (RXF 393 renal): > 16700 nM
- GI50 (SF-268 CNS): < 1.67 nM
- TGI (SF-268 CNS): > 16700 nM
- GI50 (SF-295 CNS): < 1.67 nM
- TGI (SF-295 CNS): 91.8 nM
- GI50 (SF-539 CNS): < 1.67 nM
- TGI (SF-539 CNS): 4.37 nM
- GI50 (SK-MEL-2 melanoma): < 1.67 nM
- TGI (SK-MEL-2 melanoma): > 16700 nM
- GI50 (SK-MEL-5 melanoma): < 1.67 nM
- TGI (SK-MEL-5 melanoma): 2.54 nM
- GI50 (SK-OV-3 ovarian): < 1.67 nM
- TGI (SK-OV-3 ovarian): > 16700 nM
- GI50 (SN12C renal): 3.07 nM
- TGI (SN12C renal): > 16700 nM
- GI50 (SNB-19 CNS): < 1.67 nM
- TGI (SNB-19 CNS): > 16700 nM
- GI50 (SNB-75 CNS): < 1.67 nM
- TGI (SNB-75 CNS): 12600 nM
- GI50 (SR leukemia): < 1.67 nM
- TGI (SR leukemia): > 16700 nM
- GI50 (SW-620 colon): < 1.67 nM
- TGI (SW-620 colon): > 16700 nM
- GI50 (TK-10 renal): 117 nM
- TGI (TK-10 renal): > 16700 nM
- GI50 (U251 CNS): < 1.67 nM
- TGI (U251 CNS): > 16700 nM
- GI50 (UACC-62 melanoma): < 1.67 nM
- TGI (UACC-62 melanoma): > 16700 nM
- GI50 (UO-31 renal): 2.97 nM
- TGI (UO-31 renal): > 10800 nM

From PubChem BioAssay (NCI)
